Measurements taken from patent US20160143929A1, “ADMINISTRATION OF GL[…] THE TREATMENT OF CANCER” (Threshold Pharmaceuticals, Inc., priority 2008, published 2016).

What was measured:
[1] = Phase I study: pharmacokinetics of Glufosfamide by 6 h intravenous infusion; settings: over the dose range studied, 3200-6000 mg/m^2
Excerpt: Patients were ineligible if they had symptomatic brain metastasis; other nonmalignant systemic disease; an active, uncontrolled infection; preexisting nephrotoxicity of grade 3 or 4 (NCI Common Toxicity Criteria—NCI-CTC) resulting from previous therapy; or infection with HIV, HBV, or HCV. They were also ineligible if they were pregnant or nursing, or if they required steroid therapy.
This open-label, dose-escalation Phase I study was based on intravenous infusion of the drug in three cohorts of Japanese subjects with malignant solid tumors. Glufosfamide was administered intravenously over 6 h in a total volume of 1000 mL of normal saline at doses of 3200, 4500, and 6000 mg/m^2. One-quarter of the dose was administered during the first 30 min at a rate of 500 mL/h, with the remainder of the dose being administered over the subsequent 330 min at a rate of 136 mL/h. Glufosfamide was administered on day 1 once every 3 weeks. Antiemetic premedication was not mandatory in the protocol. Granulocyte colony-stimulating factor (G-CSF) was administered for febrile neutropenia, sepsis with neutropenia, or recurrent neutropenia of grade 4.
Pharmacokinetic sampling was performed for the first and second cycles.

solid tumors = experiment: Phase I study: tumor response by RECIST; format: in vivo, human
Method: (§1) A medical history was obtained from each patient, and physical examinations and routine laboratory evaluations were performed before treatment initiation and weekly thereafter, Chest and other relevant x-rays were obtained during screening and after alternate cycles of treatment. Adverse events were monitored and recorded throughout the study and were graded according to NCI-CTC, version 3.0. The tumor response was assessed for measurable target lesions according to Response Evaluation Criteria in Solid Tumors (RECIST).
(§2) Antiemetic premedication was not mandatory in the protocol.

[2] = Phase I dose-escalation study: safety, DLT, MTD and RD; format: in vivo, human
Method: as §1, §2
The starting dose of Glufosfamide was 3200, which was increased to 4500 and then to 6000 in subsequent cohorts of at least three patients. The following adverse events during cycle 1 were defined as DLTs (dose-limiting toxicities): neutropenia of grade 4 (ANC of <500/uL) for >7 days; febrile neutropenia (fever of >38 degrees C. with an ANC of <1000/uL); thrombocytopenia (platelet count of <25,000/uL); nausea or vomiting of grade > (or equal to) 3 despite maximal antiemetic therapy; and any other nonhematologic toxicity of grade > (or equal to) 3 considered drug-related. If any patient experienced a DLT during the first cycle, three additional patients were treated at the same dose. Patients who experienced a DLT could continue Glufosfamide therapy at the preceding dose level. Treatment in subsequent courses was reinitiated only after hematologic recovery (ANC of > (or equal to) 1500/uL, platelet count of > (or equal to) 100,000/uL) and resolution of all other toxicities to grade < (or equal to) 1 or baseline intensity. The MTD (maximum tolerated dose) was defined as the dose at which two or more patients experienced a DLT in the first cycle. The RD (recommended dose) was defined as the dose level immediately below the MTD. In accordance with the methods of the invention, both the RD and MTD (and intermediate doses) can be administered to patients, with the RD preferred for Japanese and other patients of Asian origin and the MID preferred for other patients.

pancreatic cancer = pancreatic cancer patients relapsed after or not responding to gemcitabine; cited from earlier work
[3] = Caucasian patients, intravenous infusion; cited from earlier work

SMILES: O=P(O)(NCCCl)NCCCl [IPM, isophosphoramide mustard]
- dose linearity of pharmacokinetics [1]: linear pharmacokinetics

SMILES: O=P(NCCCl)(NCCCl)O[C@@H]1O[C@H](CO)[C@@H](O)[C@H](O)[C@H]1O [Glufosfamide, beta-D-glucosyl-isophosphoramide mustard]
- partial response (solid tumors; among thirteen evaluable patients, advanced gall bladder cancer, 4500 mg/m^2, after two cycles): one partial response
- subjects showing stabilization of disease (solid tumors; among thirteen evaluable patients, colorectal (4), gastric, thymic cancer, thymoma, non-small cell lung cancer): eight subjects
- patients with evidence of antitumor activity (solid tumors; among thirteen patients evaluable for response): nine patients
- duration of partial response (solid tumors; person, advanced gall bladder cancer, 4500 mg/m^2, two cycles): greater than five months
- dose linearity of pharmacokinetics [1]: linear pharmacokinetics
- patients with neutropenia of grade 4 ([2]; 4500 mg/m^2, cycle 2, without infection, short-lived, 13 patients): only one patient
- patients with grade 4 anemia requiring red blood cell transfusion ([2]; 4500 mg/m^2, cycle 3): one patient
- patients with DLTs ([2]; 6000 mg/m^2, cycle 1, grade 3 metabolic acidosis, hypophosphatemia, hypokalemia): two of three treated patients experienced DLTs
- MTD (maximum tolerated dose) ([2]; Japanese patients, 6 h iv infusion day 1 every 3 weeks, dose at which two or more patients had a DLT in cycle 1): 6000 mg/m^2
- RD (recommended dose) ([2]; Japanese patients, 6 h iv infusion every 3 weeks, dose level immediately below MTD): 4500 mg/m^2
- predominant nonhematologic toxicities ([2]; all dose levels, generally transient and reversible): fatigue, nausea, a high urinary concentration of beta 2 microglobulin, hypophosphatemia, hypokalemia, and metabolic acidosis
- DLTs ([2]; two lowest doses (3200 and 4500 mg/m^2), cycle 1): No DLTs occurred
- Phase III trial outcome (pancreatic cancer): did not meet its endpoints
- anticancer activity in Phase III trial (pancreatic cancer): did exhibit anticancer activity in some patients
- dose that is well tolerated [3]: 6000 mg/m^2
